molecular target: T1, F508del (Homo sapiens, UniProt P13569, DEL508-508); test: Protocol 2: FRET membrane potential optical assay (VIPR), identification of correction compounds; format: cell-based; settings: F508del CFTR modulator activity; compounds of Table 1
T1 construct: expressed in transfected cells
Text: Membrane potential optical methods for assaying F508del modulation properties of compounds.
These voltage sensitive assays are based on the change in fluorescence resonant energy transfer (FRET) between the membrane-soluble, voltage-sensitive dye, DiSBAC2(3), and a fluorescent phospholipid, CC2-DMPE, which is attached to the outer leaflet of the plasma membrane and acts as a FRET donor. Changes in membrane potential (Vm) cause the negatively charged DiSBAC2(3) to redistribute across the plasma membrane and the amount of energy transfer from CC2-DMPE changes accordingly. The changes in fluorescence emission were monitored using VIPR™ II, which is an integrated liquid handler and fluorescent detector designed to conduct cell-based screens in 96- or 384-well microtiter plates.
To identify small molecules that correct the trafficking defect associated with F508del; a single-addition HTS assay format was developed. The cells were incubated in serum-free medium for 16 hrs at 37° C. in the presence or absence (negative control) of test compound. As a positive control, cells plated in 384-well plates were incubated for 16 hrs at 27° C. to “temperature-correct” F508del. The cells were subsequently rinsed 3× with Krebs Ringers solution and loaded with the voltage-sensitive dyes. To activate F508del, 10 μM forskolin and the CFTR potentiator, genistein (20 μM), were added along with Cl^−-free medium to each well. The addition of Cl^−-free medium promoted Cl^− efflux in response to F508del activation and the resulting membrane depolarization was optically monitored using the FRET-based voltage-sensor dyes.
• Bath Solution #1: (in mM) NaCl 160, KCl 4.5, CaCl2 2, MgCl2 1, HEPES 10, pH 7.4 with NaOH. • Chloride-free bath solution: Chloride salts in Bath Solution #1 (above) are substituted with gluconate salts. • CC2-DMPE: Prepared as a 10 mM stock solution in DMSO and stored at −20° C. • DiSBAC2(3): Prepared as a 10 mM stock in DMSO and stored at −20° C. Cell Culture
NIH3T3 mouse fibroblasts stably expressing F508del are used for optical measurements of membrane potential. The cells are maintained at 37° C. in 5% CO2 and 90% humidity in Dulbecco's modified Eagle's medium supplemented with 2 mM glutamine, 10% fetal bovine serum, 1×NEAA, β-ME, 1× pen/strep, and 25 mM HEPES in 175 cm^2 culture flasks. For all optical assays, the cells were seeded at 30,000/well in 384-well matrigel-coated plates and cultured for 2 hrs at 37° C. before culturing at 27° C. for 24 hrs for the potentiator assay. For the correction assays, the cells are cultured at 27° C. or 37° C. with and without compounds for 16-24 hours.

T1 sequence (P13569 with tags, fused parts or gaps DEL508-508): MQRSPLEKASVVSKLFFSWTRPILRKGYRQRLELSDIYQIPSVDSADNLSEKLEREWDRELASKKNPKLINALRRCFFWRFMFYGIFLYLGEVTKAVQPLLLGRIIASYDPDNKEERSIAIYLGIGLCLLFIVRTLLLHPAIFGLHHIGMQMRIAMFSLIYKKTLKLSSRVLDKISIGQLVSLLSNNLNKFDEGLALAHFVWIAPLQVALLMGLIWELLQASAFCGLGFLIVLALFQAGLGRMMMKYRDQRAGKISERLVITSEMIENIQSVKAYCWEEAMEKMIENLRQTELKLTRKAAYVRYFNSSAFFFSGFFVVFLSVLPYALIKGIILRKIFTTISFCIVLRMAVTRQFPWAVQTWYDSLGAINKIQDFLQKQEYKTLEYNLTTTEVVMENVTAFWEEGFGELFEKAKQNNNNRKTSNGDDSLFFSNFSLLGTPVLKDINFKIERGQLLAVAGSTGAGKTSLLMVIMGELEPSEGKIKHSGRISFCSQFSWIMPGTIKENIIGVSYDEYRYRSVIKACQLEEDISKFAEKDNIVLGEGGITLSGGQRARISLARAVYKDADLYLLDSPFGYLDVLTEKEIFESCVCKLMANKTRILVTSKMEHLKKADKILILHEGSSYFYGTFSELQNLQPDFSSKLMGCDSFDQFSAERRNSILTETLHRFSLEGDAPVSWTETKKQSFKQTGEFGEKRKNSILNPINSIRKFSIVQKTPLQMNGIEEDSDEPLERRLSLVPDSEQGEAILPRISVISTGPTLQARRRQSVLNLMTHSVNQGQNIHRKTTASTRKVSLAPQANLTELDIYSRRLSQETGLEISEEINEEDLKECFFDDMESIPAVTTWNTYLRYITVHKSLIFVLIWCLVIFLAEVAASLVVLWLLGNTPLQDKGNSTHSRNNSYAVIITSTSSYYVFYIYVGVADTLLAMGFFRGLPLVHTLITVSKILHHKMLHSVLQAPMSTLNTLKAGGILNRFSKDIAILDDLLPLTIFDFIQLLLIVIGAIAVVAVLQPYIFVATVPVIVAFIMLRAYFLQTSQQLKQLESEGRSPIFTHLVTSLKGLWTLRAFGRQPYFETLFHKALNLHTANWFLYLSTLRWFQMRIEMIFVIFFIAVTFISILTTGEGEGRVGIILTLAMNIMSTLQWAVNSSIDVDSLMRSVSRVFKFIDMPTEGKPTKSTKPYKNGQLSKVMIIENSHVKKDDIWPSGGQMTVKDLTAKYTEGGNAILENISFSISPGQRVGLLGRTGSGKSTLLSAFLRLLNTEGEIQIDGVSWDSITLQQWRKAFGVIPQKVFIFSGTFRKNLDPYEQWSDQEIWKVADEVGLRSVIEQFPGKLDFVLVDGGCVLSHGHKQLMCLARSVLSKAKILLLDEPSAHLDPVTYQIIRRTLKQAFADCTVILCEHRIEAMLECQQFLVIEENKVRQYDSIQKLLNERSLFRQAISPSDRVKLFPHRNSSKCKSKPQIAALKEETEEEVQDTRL

SMILES | EC30
CC(C)COc1cc(F)cc(-c2ccc(C(=O)NS(=O)(=O)c3cccc(N)n3)c(C3=CC(C)CC3(C)C)n2)c1 (single isomer, unassigned) [Compound 2081, N-[(6-amino-2-pyridyl)sulfonyl]-6-(3-fluoro-5-isobutoxy-phenyl)-2-(3,5,5-trimethylcyclopenten-1-yl)pyridine-3-carboxamide] | +++ (“+++” means <3 uM)
CC(C)COc1cc(F)cc(-c2ccc(C(=O)NS(=O)(=O)c3cccc(N)n3)c(N3CCC(C)C(C)C3)n2)c1 (single isomer, unassigned) [Compound 2178, N-[(6-amino-2-pyridyl)sulfonyl]-2-(3,4-dimethyl-1-piperidyl)-6-(3-fluoro-5-isobutoxy-phenyl)pyridine-3-carboxamide] | +++ (“+++” means <3 uM)
CC(C)COc1cc(F)cc(-c2ccc(C(=O)NS(=O)(=O)c3cccc(N)n3)c(C3CC(C)(C)CC3(C)C)n2)c1 (single isomer, unassigned) [Compound 2492, N-[(6-amino-2-pyridyl)sulfonyl]-6-(3-fluoro-5-isobutoxy-phenyl)-2-(2,2,4,4-tetramethylcyclopentyl)pyridine-3-carboxamide] | +++ (“+++” means <3 uM)
CC(C)COc1cc(F)cc(-c2ccc(C(=O)NS(=O)(=O)c3cccc(N)n3)c(N3CCC(C)C(C)C3)n2)c1 (single isomer, unassigned) [Compound 2532, N-[(6-amino-2-pyridyl)sulfonyl]-2-(3,4-dimethyl-1-piperidyl)-6-(3-fluoro-5-isobutoxy-phenyl)pyridine-3-carboxamide] | +++ (“+++” means <3 uM)

same assay, conditions: F508del CFTR modulator activity; compounds of Table 1; read-out: EC30

SMILES | EC30 [nM]
CC(C)(C)c1ccc(C(=O)NS(=O)(=O)c2cccc(N)n2)c(N2CCC(C3CC3)C2(C)C)n1 (single isomer, unassigned) [Compound 2022, N-[(6-amino-2-pyridyl)sulfonyl]-6-tert-butyl-2-(3-cyclopropyl-2,2-dimethyl-pyrrolidin-1-yl)pyridine-3-carboxamide] | < 3000
CC(C)COc1cc(F)cc(-c2ccc(C(=O)NS(=O)(=O)c3cccc(N)n3)c(C3=CC(C)CC3(C)C)n2)c1 (single isomer, unassigned) [Compound 2039, N-[(6-amino-2-pyridyl)sulfonyl]-6-(3-fluoro-5-isobutoxy-phenyl)-2-(3,5,5-trimethylcyclopenten-1-yl)pyridine-3-carboxamide] | < 3000
CCC1(C)C[C@@H](C)CN1c1nc(-c2cc(F)cc(OCC(C)C)c2)ccc1C(=O)NS(=O)(=O)c1cccc(N)n1 (single isomer, unassigned) [Compound 2058, N-[(6-amino-2-pyridyl)sulfonyl]-2-(2-ethyl-2,4-dimethyl-pyrrolidin-1-yl)-6-(3-fluoro-5-isobutoxy-phenyl)pyridine-3-carboxamide] | < 3000
CC(C)COc1cc(F)cc(-c2ccc(C(=O)NS(=O)(=O)c3cccc(N)n3)c(N3CCC(C)C(C)C3)n2)c1 (single isomer, unassigned) [Compound 2062, N-[(6-amino-2-pyridyl)sulfonyl]-2-(3,4-dimethyl-1-piperidyl)-6-(3-fluoro-5-isobutoxy-phenyl)pyridine-3-carboxamide] | < 3000
C[C@@H]1CN(c2nc(C(C)(C)C)c([C@@H](O)[C@H](O)C3CCCC3)cc2C(=O)NS(=O)(=O)c2cccc(N)n2)C(C)(C)C1 (single isomer, unassigned) [Compound 2069] | < 3000
C[C@@H]1CN(c2nc(C3CCC(C(F)(F)F)CC3)ccc2C(=O)NS(=O)(=O)c2cccnc2N)C(C)(C)C1 (single isomer, unassigned) [Compound 2077] | < 3000
CC(C)COc1ccn(-c2ccc(C(=O)NS(=O)(=O)c3cccnc3N)c(N3CC(C)CC34CCC4)n2)n1 (single isomer, unassigned) [Compound 2194, N-[(2-amino-3-pyridyl)sulfonyl]-6-(3-isobutoxypyrazol-1-yl)-2-(6-methyl-8-azaspiro[3.4]octan-8-yl)pyridine-3-carboxamide] | < 3000
CCC1(C)CC(C)CN1c1nc(-c2cc(F)cc(OCC(C)C)c2)ccc1C(=O)NS(=O)(=O)c1cccc(N)n1 (single isomer, unassigned) [Compound 2213, N-[(6-amino-2-pyridyl)sulfonyl]-2-(2-ethyl-2,4-dimethyl-pyrrolidin-1-yl)-6-(3-fluoro-5-isobutoxy-phenyl)pyridine-3-carboxamide] | < 3000
CC(C)(C)c1ccc(C(=O)NS(=O)(=O)c2cccc(N)n2)c(N2CCC(C3CCOCC3)C2(C)C)n1 (single isomer, unassigned) [Compound 2266, N-[(6-amino-2-pyridyl)sulfonyl]-6-tert-butyl-2-(2,2-dimethyl-3-tetrahydropyran-4-yl-pyrrolidin-1-yl)pyridine-3-carboxamide] | < 3000
CC(C)COc1cc(F)cc(-c2ccc(C(=O)NS(=O)(=O)c3cccc(N)n3)c(N3CC(C)CC34CCC4)n2)c1 (single isomer, unassigned) [Compound 2269, N-[(6-amino-2-pyridyl)sulfonyl]-6-(3-fluoro-5-isobutoxy-phenyl)-2-(6-methyl-8-azaspiro[3.4]octa N-8-yl)pyridine-3-carboxamide] | < 3000
CC(C)COc1cc(F)cc(-c2ccc(C(=O)NS(=O)(=O)c3cccc(N)n3)c(N3C[C@H](C(F)(F)F)CC3(C)C)n2)c1 (single isomer, unassigned) [Compound 2271, N-[(6-amino-2-pyridyl)sulfonyl]-2-(2,2-dimethyl-4-(trifluoromethyl)pyrrolidin-1-yl)-6-(3-fluoro-5-isobutoxy-phenyl)pyridine-3-carboxamide] | < 3000
CC(C)COc1cc(F)cc(-c2ccc(C(=O)NS(=O)(=O)N3CC[C@@H](N)C3)c(N3CCCC3(C)Cc3ccccc3)n2)c1 (single isomer, unassigned) [Compound 2325] | < 3000
CC1CN(c2nc(-n3ccc(OCC(C)(C)C)n3)ccc2C(=O)NS(=O)(=O)c2cccnc2N)C2(CCC2)C1 (single isomer, unassigned) [Compound 2358, N-[(2-amino-3-pyridyl)sulfonyl]-6-[3-(2,2-dimethylpropoxy)pyrazol-1-yl]-2-[6-methyl-8-azaspiro[3.4]octan-8-yl]pyridine-3-carboxamide] | < 3000
CC(C)COc1cc(F)cc(-c2ccc(C(=O)NS(=O)(=O)c3cccc(N)n3)c(C3CC(C)(C)CC3(C)C)n2)c1 (single isomer, unassigned) [Compound 2374, N-[(6-amino-2-pyridyl)sulfonyl]-6-(3-fluoro-5-isobutoxy-phenyl)-2-(2,2,4,4-tetramethylcyclopentyl)pyridine-3-carboxamide] | < 3000
CC(C)COc1cc(F)cc(-c2ccc(C(=O)NS(=O)(=O)c3cccc(N)n3)c(N3CC(C)CCC3C)n2)c1 (single isomer, unassigned) [Compound 2451, N-[(6-amino-2-pyridyl)sulfonyl]-2-(2,5-dimethyl-1-piperidyl)-6-(3-fluoro-5-isobutoxy-phenyl)pyridine-3-carboxamide] | < 3000
CC(C)COc1cc(F)cc(-c2ccc(C(=O)NS(=O)(=O)N3CCC(N)C3)c(N3CCCC3c3ccccc3)n2)c1 (single isomer, unassigned) [Compound 2477] | < 3000

same assay, conditions: Table 3; compounds of Table 1 as modulators of CFTR activity; protocol not stated

EC30 | SMILES
+++ (“+++” means <3 uM) | Cc1cc(C)c(Cn2nc(C(C)(C)C)cc2C(=O)C(C)S(=O)(=O)c2ccccc2)c(C)c1 (racemic) [Compound 139, 2-(benzenesulfonyl)-1-[5-tert-butyl-2-[(2,4,6-trimethylphenyl)methyl]pyrazol-3-yl]propan-1-one]
+++ (“+++” means <3 uM) | Cc1cc(C)c(Oc2nc(C(C)(C)C)ccc2C(=O)NS(=N)(=O)c2cccc(N)c2)c(C)c1 (single isomer, unassigned) [Compound 19, N-[(3-aminophenyl)sulfonimidoyl]-6-tert-butyl-2-(2,4,6-trimethylphenoxy)pyridine-3-carboxamide]
+++ (“+++” means <3 uM) | Cc1cc(C)c(Oc2nc(C(C)(C)C)ccc2C(=O)N[S@](=N)(=O)c2cccc(N)c2)c(C)c1 (single isomer, unassigned) [Compound 53, N-[(3-aminophenyl)sulfonimidoyl]-6-tert-butyl-2-(2,4,6-trimethylphenoxy)pyridine-3-carboxamide]

Source: patent publication US10758534B2 (Vertex Pharmaceuticals Incorporated, priority 2014, dated 2020)
